In this test the test system is IFNα-Induced STAT Phosphorylation. As to the kind of experiment: IFNα-Induced STAT Phosphorylation in Human Whole Blood. The class given is cell-based. Particulars: Homo sapiens, 1 h compound incubation, 1000 U/mL recombinant human IFNα A/D for 15 min, pSTAT5 in CD3 positive population, read-out: LE Human WB IFNα-Induced Stat Phosph. (IC50). The text has this:
IFNα-Induced STAT Phosphorylation in Human Whole Blood
The amount of pSTAT5 expression was quantitated by median fluorescence intensity after gating on the CD3 positive population.

SMILES strings stand for the structures. pIC50: −log10 of the molar value.

Data on eleven molecules can be found in patent US11597721B2, “Heterocyclic compounds comprising pyridine useful as modulators of IL-12, IL-23 and/or IFNα responses” (BRISTOL-MYERS SQUIBB COMPANY, priority 2018, dated 2023).

For `[2H]C([2H])([2H])NC(=O)c1nnc(NC(=O)C2CC2)cc1Nc1nccc(-c2noc(CN(C)C)n2)c1OC` [Example 58, 6-cyclopropaneamido-4-[(4-{5-[(dimethylamino)methyl]-1,2,4-oxadiazol-3-yl}-3-methoxypyridin-2-yl)amino]-N—(^2H3)methylpyridazine-3-carboxamide], the pIC50 was 7.22. As for `[2H]C([2H])([2H])NC(=O)c1nnc(NC(=O)CC)cc1Nc1nccc(-c2noc(C)n2)c1OC` [Example 81, 4-{[3-methoxy-4-(5-methyl-1,2,4-oxadiazol-3-yl)pyridin-2-yl]amino}-N—(^2H3)methyl-6-propanamidopyridazine-3-carboxamide], the negative-log IC50 (pIC50) was 6.66. The figure for `[2H]C([2H])([2H])NC(=O)c1nnc(NC(=O)C2CC2)cc1Nc1nccc(-c2noc(CN(C)S(C)(=O)=O)n2)c1OC` [Example 54, 6-cyclopropaneamido-4-[(3-methoxy-4-{5-[(N-methylmethanesulfonamido)methyl]-1,2,4-oxadiazol-3-yl}pyridin-2-yl)amino]-N—(^2H3)methylpyridazine-3-carboxamide] is 8.00. In the case of `[2H]C([2H])([2H])NC(=O)c1nnc(NC(=O)C2CC2)cc1Nc1nccc(-c2noc([C@H](C)O)n2)c1OC` [Example 57, 6-cyclopropaneamido-4-[(4-{5-[(1S)-1-hydroxyethyl]-1,2,4-oxadiazol-3-yl}-3-methoxypyridin-2-yl)amino]-N—(^2H3)methylpyridazine-3-carboxamide], the pIC50 is 7.22. Take `[2H]C([2H])([2H])NC(=O)c1nnc(NC(=O)CC(C)C)cc1Nc1nccc(-c2noc(COC)n2)c1OC` [Example 68, 4-({3-methoxy-4-[5-(methoxymethyl)-1,2,4-oxadiazol-3-yl]pyridin-2-yl}amino)-N—(^2H3)methyl-6-(3-methylbutanamido)pyridazine-3-carboxamide]: the pIC50 is 5.85. For the molecule `[2H]C([2H])([2H])NC(=O)c1nnc(NC(=O)C2CC2)cc1Nc1nccc(C#N)c1OC` [Example 51, 4-[(4-cyano-3-methoxypyridin-2-yl)amino]-6-cyclopropaneamido-N—(^2H3)methylpyridazine-3-carboxamide], the negative logarithm of the IC50 (pIC50) is < 5.00. As for `[2H]C([2H])([2H])NC(=O)c1cnc(NC(=O)C2CC2)cc1Nc1nccc(-c2noc(COCC)n2)c1OC` [Example 46, 6-cyclopropaneamido-4-({4-[5-(ethoxymethyl)-1,2,4-oxadiazol-3-yl]-3-methoxypyridin-2-yl}amino)-N—(^2H3)methylpyridine-3-carboxamide], the negative logarithm of the IC50 (pIC50) is 7.52.

Turning to `[2H]C([2H])([2H])NC(=O)c1nnc(NC(=O)CC2CC2)cc1Nc1nccc(-c2cnc(C(=O)N(C)C)cn2)c1OC` [Example 89, 6-(2-Cyclopropylacetamido)-4-((4-(5-(dimethylcarbamoyl)pyrazin-2-yl)-3-methoxypyridin-2-yl)amino)-N-(methyl-d3)pyridazine-3-carboxamide], the pIC50 was 6.68. As to `[2H]C([2H])([2H])NC(=O)c1nnc(NC(=O)CC)cc1Nc1nccc(-c2noc(COC)n2)c1OC` [Example 66, 4-({3-methoxy-4-[5-(methoxymethyl)-1,2,4-oxadiazol-3-yl]pyridin-2-yl}amino)-N—(^2H3)methyl-6-propanamidopyridazine-3-carboxamide], the pIC50 was 6.68.

Take `[2H]C([2H])([2H])NC(=O)c1nnc(Nc2nnc(C)s2)cc1Nc1nccc(-c2ncn(C)n2)c1OC` [Example 20, 4-{[3-methoxy-4-(1-methyl-1H-1,2,4-triazol-3-yl)pyridin-2-yl]amino}-N—(^2H3)methyl-6-[(5-methyl-1,3,4-thiadiazol-2-yl)amino]pyridazine-3-carboxamide]: the negative-log IC50 (pIC50) is 5.82. For the molecule `[2H]C([2H])([2H])NC(=O)c1nnc(Nc2cc(Cl)n(C)n2)cc1Nc1nccc(-c2cnc(C(=O)N(C)C)cn2)c1OC` [Example 92, 6-((5-Chloro-1-methyl-1H-pyrazol-3-yl)amino)-4-((4-(5-(dimethylcarbamoyl)pyrazin-2-yl)-3-methoxypyridin-2-yl)amino)-N-(methyl-d3)pyridazine-3-carboxamide], the pIC50 was 7.05.
